Test results: ChEMBL document CHEMBL1201862, “PubChem BioAssay data set” (2004)
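Grown in 96-well plates, cells were treated for 48 hours with each compound at five concentrations. Insufficient inhibition: endpoint recorded as highest concentration tested. Abbreviation: GI50, concentration required for 50% inhibition of growth.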 The source made the active and inactive calls. Cut-off read from the data, not from the text of the source: active = GI50 up to about 1.1 µM and inactive = higher.

Legend:
Experiment in all cases: NCI-60 cell line screen, 48 h
786-0 = test system: 786-0
BT-549 = test system: BT-549
CAKI-1 = test system: CAKI-1
HT-29 = test system: HT-29
Hs-578T = test system: Hs-578T
K562 = test system: K562
KM12 = test system: KM12
LOX IMVI = test system: LOX IMVI
M14 = test system: M14
MDA-MB-435 = test system: MDA-MB-435
NCI-H226 = test system: NCI-H226
NCI-H522 = test system: NCI-H522
OVCAR-5 = test system: OVCAR-5
OVCAR-8 = test system: OVCAR-8
RXF 393 = test system: RXF 393
SF-295 = test system: SF-295
SK-MEL-2 = test system: SK-MEL-2
SN12C = test system: SN12C
SW-620 = test system: SW-620
UACC-62 = test system: UACC-62

Measured: GI50

Cc1c2c(c(C)c3c4c(oc13)CCCC4)C=NCC2
inactive: 786-0 35.2 µM | BT-549 16.8 µM | CAKI-1 13.2 µM | HT-29 6.64 µM | Hs-578T 17 µM | K562 11.1 µM | KM12 16.1 µM | LOX IMVI 20.5 µM | M14 20.2 µM | MDA-MB-435 14.4 µM | NCI-H226 14.2 µM | NCI-H522 16 µM | OVCAR-5 16.8 µM | OVCAR-8 10.6 µM | RXF 393 3.66 µM | SF-295 16.1 µM | SK-MEL-2 17.1 µM | SN12C 15.8 µM | SW-620 21.3 µM | UACC-62 15 µM

CCOC(=O)c1cnc(N(C)C)nc1SC(=N)N
inactive: 786-0 > 100 µM | BT-549 > 100 µM | CAKI-1 > 100 µM | HT-29 > 100 µM | Hs-578T > 100 µM | K562 > 100 µM | KM12 > 100 µM | LOX IMVI > 100 µM | M14 > 100 µM | MDA-MB-435 > 100 µM | NCI-H226 > 100 µM | NCI-H522 > 100 µM | OVCAR-5 > 100 µM | OVCAR-8 > 100 µM | RXF 393 > 100 µM | SF-295 > 100 µM | SK-MEL-2 > 100 µM | SN12C > 100 µM | SW-620 > 100 µM | UACC-62 > 100 µM

c1ccc(C(c2cccc3c2ccc2ccccc23)C(c2ccccc2)c2cccc3c2ccc2ccccc23)cc1 (stereo not given)
inactive: 786-0 > 100 µM | BT-549 > 100 µM | CAKI-1 > 100 µM | HT-29 > 100 µM | Hs-578T > 100 µM | K562 > 100 µM | KM12 > 100 µM | LOX IMVI > 100 µM | M14 > 100 µM | MDA-MB-435 > 100 µM | NCI-H226 > 100 µM | NCI-H522 > 100 µM | OVCAR-5 > 100 µM | OVCAR-8 > 100 µM | RXF 393 > 100 µM | SF-295 > 100 µM | SK-MEL-2 > 100 µM | SN12C > 100 µM | SW-620 > 100 µM | UACC-62 > 100 µM

Cc1csc(-c2cn(C)c3c2C(=O)C(=N)C=C3O)n1
inactive: 786-0 32.4 µM | BT-549 44.9 µM | CAKI-1 3.68 µM | HT-29 8.69 µM | Hs-578T 3.86 µM | K562 6.28 µM | KM12 11.2 µM | LOX IMVI 3.52 µM | M14 3.74 µM | MDA-MB-435 4.28 µM | NCI-H226 8.39 µM | NCI-H522 13.6 µM | OVCAR-5 42.4 µM | OVCAR-8 6.34 µM | RXF 393 54.1 µM | SF-295 2.37 µM | SK-MEL-2 19.8 µM | SN12C 39.1 µM | SW-620 9.73 µM | UACC-62 7.59 µM

CCOC(=O)CN1C(=O)c2c(NC(=O)C(=O)O)cccc2S1(=O)=O
inactive: 786-0 > 100 µM | BT-549 > 100 µM | CAKI-1 > 100 µM | HT-29 > 100 µM | Hs-578T > 100 µM | K562 > 100 µM | KM12 > 100 µM | LOX IMVI > 100 µM | M14 > 100 µM | MDA-MB-435 > 100 µM | NCI-H226 > 100 µM | NCI-H522 > 100 µM | OVCAR-5 > 100 µM | OVCAR-8 > 100 µM | RXF 393 > 100 µM | SF-295 > 100 µM | SK-MEL-2 > 100 µM | SN12C > 100 µM | SW-620 > 100 µM | UACC-62 > 100 µM

O=C1/C(=C/c2ccc(F)cc2)CNC/C1=C\c1ccc(F)cc1
inactive: CAKI-1 1.12 µM | Hs-578T 4.6 µM | M14 1.99 µM | MDA-MB-435 2.49 µM | NCI-H226 2.82 µM | NCI-H522 1.53 µM | OVCAR-5 2.88 µM | OVCAR-8 2.07 µM | RXF 393 1.82 µM | SF-295 2.09 µM | SK-MEL-2 12 µM | SN12C 2.14 µM | UACC-62 2.32 µM
active: 786-0 0.762 µM | BT-549 1.01 µM | HT-29 0.664 µM | K562 0.245 µM | KM12 0.53 µM | LOX IMVI 0.63 µM | SW-620 0.364 µM

COCC(=O)[C@]1(O)Cc2c(O)c3c(c(O)c2[C@@H](OC2CC(N)C(O)C(C)O2)C1)C(=O)c1c(OC)cccc1C3=O (stereo not given in full)
active: 786-0 0.0373 µM | BT-549 0.161 µM | CAKI-1 0.0628 µM | HT-29 0.0192 µM | Hs-578T < 0.01 µM | K562 0.0124 µM | KM12 0.0564 µM | LOX IMVI 0.0191 µM | M14 0.0927 µM | MDA-MB-435 0.188 µM | NCI-H226 0.0401 µM | NCI-H522 0.0255 µM | OVCAR-5 0.22 µM | OVCAR-8 < 0.0172 µM | RXF 393 0.0834 µM | SF-295 0.0296 µM | SK-MEL-2 0.121 µM | SN12C 0.0285 µM | SW-620 0.0209 µM | UACC-62 0.0545 µM

NCC(O)CSP(=O)(O)O (stereo not given)
inactive: 786-0 > 100 µM | BT-549 > 100 µM | CAKI-1 > 100 µM | HT-29 > 100 µM | Hs-578T > 100 µM | K562 > 100 µM | KM12 > 100 µM | LOX IMVI > 100 µM | M14 > 100 µM | MDA-MB-435 > 100 µM | NCI-H226 > 100 µM | NCI-H522 > 100 µM | OVCAR-5 > 100 µM | OVCAR-8 > 100 µM | RXF 393 > 100 µM | SF-295 > 100 µM | SK-MEL-2 > 100 µM | SN12C > 100 µM | SW-620 > 100 µM | UACC-62 > 100 µM

Nc1nc(SC/C=C/c2ccccc2)c2[nH]cnc2n1
inactive: 786-0 > 100 µM | BT-549 28.2 µM | CAKI-1 38.7 µM | HT-29 > 100 µM | Hs-578T 16.7 µM | K562 63.2 µM | KM12 > 100 µM | LOX IMVI 53.1 µM | M14 71.8 µM | MDA-MB-435 > 100 µM | NCI-H226 35.2 µM | NCI-H522 19.5 µM | OVCAR-5 > 100 µM | OVCAR-8 74.5 µM | RXF 393 51.5 µM | SF-295 > 100 µM | SK-MEL-2 91 µM | SN12C > 100 µM | SW-620 > 100 µM | UACC-62 > 100 µM

CCCCCCCCCCCC(=O)N(CCCCCCCCC)CC(O)C(O)C(OC1OC(CO)C(O)C(O)C1O)C(O)CO (stereo not given)
inactive: 786-0 17.5 µM | BT-549 19.4 µM | CAKI-1 20.7 µM | HT-29 19.2 µM | Hs-578T 35.3 µM | K562 26.9 µM | KM12 16.7 µM | LOX IMVI 20.9 µM | M14 19.4 µM | MDA-MB-435 17.7 µM | NCI-H226 20.4 µM | NCI-H522 22.1 µM | OVCAR-5 22.7 µM | OVCAR-8 20.6 µM | RXF 393 20.7 µM | SF-295 18.4 µM | SK-MEL-2 19.7 µM | SN12C 19.1 µM | SW-620 18.8 µM | UACC-62 17.7 µM

COc1ccc(C(=O)CCN(C)C)c2ccccc12
inactive: 786-0 5.93 µM | BT-549 19.3 µM | CAKI-1 6.78 µM | HT-29 25.7 µM | Hs-578T 23.6 µM | K562 29.7 µM | KM12 19.5 µM | LOX IMVI 18.9 µM | M14 34.3 µM | MDA-MB-435 19.5 µM | NCI-H226 > 100 µM | NCI-H522 5.21 µM | OVCAR-5 55.6 µM | OVCAR-8 19.5 µM | RXF 393 21.3 µM | SF-295 > 100 µM | SK-MEL-2 19.5 µM | SN12C 21.5 µM | SW-620 18 µM | UACC-62 > 41.4 µM

CCOC(=O)NC(Nc1ccc(C(=O)O)cc1)(C(F)(F)F)C(F)(F)F
inactive: 786-0 > 100 µM | BT-549 > 100 µM | CAKI-1 > 100 µM | HT-29 > 100 µM | Hs-578T > 100 µM | K562 > 100 µM | KM12 > 100 µM | LOX IMVI > 100 µM | M14 > 100 µM | MDA-MB-435 > 100 µM | NCI-H226 > 100 µM | NCI-H522 > 100 µM | OVCAR-5 > 100 µM | OVCAR-8 > 100 µM | RXF 393 60.8 µM | SF-295 > 100 µM | SK-MEL-2 > 100 µM | SN12C > 100 µM | SW-620 > 100 µM | UACC-62 > 100 µM

O=C1OC(=O)C2=C1C(c1cccs1)C=C(c1cccnc1)N2c1ccncc1 (stereo not given)
inactive: 786-0 17.3 µM | BT-549 15.5 µM | CAKI-1 15.1 µM | HT-29 16.8 µM | Hs-578T 18.7 µM | K562 9.12 µM | KM12 13.4 µM | LOX IMVI 13.2 µM | M14 13.2 µM | MDA-MB-435 20 µM | NCI-H226 21.6 µM | NCI-H522 13.8 µM | OVCAR-5 12.2 µM | OVCAR-8 21.6 µM | RXF 393 16.2 µM | SF-295 20.9 µM | SK-MEL-2 15.4 µM | SN12C 17.1 µM | SW-620 20.7 µM | UACC-62 19.9 µM

O=S(=O)(O)c1ccc(Nc2ccnc3cc(Cl)ccc23)cc1
inactive: 786-0 > 100 µM | BT-549 > 100 µM | CAKI-1 > 100 µM | HT-29 > 100 µM | Hs-578T > 100 µM | K562 > 100 µM | KM12 > 100 µM | LOX IMVI > 100 µM | M14 > 100 µM | MDA-MB-435 > 100 µM | NCI-H226 > 100 µM | NCI-H522 > 100 µM | OVCAR-5 > 100 µM | OVCAR-8 > 100 µM | RXF 393 > 100 µM | SF-295 > 100 µM | SK-MEL-2 > 100 µM | SN12C > 100 µM | SW-620 > 100 µM | UACC-62 > 100 µM
